The results in this text go back to the NIST ThermoML archive (doi:10.1016/j.tca.2016.05.007).

The nature of this data set: Molar enthalpy of transition or fusion. The conditions noted are these: Crystal; DSC.

± gives the expanded uncertainty stated by the source.

For `COc1ccc(C2(c3ccc(OC)c(C)c3)OC(=O)c3ccccc32)cc1C` [3,3-bis(4-methoxy-3-methylphenyl)-1(3H)-isobenzofuranone], the “Molar enthalpy of transition or fusion” value was determined as 27.9 ± 0.6 kJ/mol.
